Test results taken from patent US5430062A, “Stilbene derivatives as anticancer agents” (priority 1993, dated 1995).
Several values for one entry are separate records, joined by “and”; a condition that tells them apart may be missing. Equal values may be shown once. Entries after “also recorded” stand apart in the source; their conditions may differ. Where a name gives a salt, the structure may show the parent alone. Read-outs that look alike come from different tables or passages of the source.

Legend:
[1] = system: CAKI-1 renal cancer; experiment: Cytotoxicity, CAKI-1; settings: read-out: cytotoxicity GI50, CAKI-1; 50% growth inhibition; average of two determinations; 8640 min
[2] = system: tubulin; experiment: Inhibition of tubulin polymerization (turbidimetry); format: biochemical, bovine; settings: for increase in IC50 / loss of activity in tubulin polymerization: relative to the parent 5a (8a, 5b) or 8a (12a)
[3] = system: SF-295 CNS cancer; experiment: Cytotoxicity, SF-295; settings: read-out: cytotoxicity GI50, SF-295, 50% growth inhibition, average of two determinations, 8640 min
[4] = system: OVCAR-3 ovarian cancer; experiment: Cytotoxicity, OVCAR-3
[5] = system: M14 melanoma; experiment: Cytotoxicity, M14
[6] = system: DMS 273 small cell lung cancer; experiment: Cytotoxicity, DMS 273; settings: read-out: cytotoxicity GI50, DMS 273, 50% growth inhibition, average of two determinations, 8640 min
[7] = system: COLO 205 colon cancer; experiment: Cytotoxicity, COLO 205; settings: read-out: cytotoxicity GI50, COLO 205, 50% growth inhibition, average of two determinations, 8640 min
[8] = system: HL-60 (TB) leukemia; experiment: Cytotoxicity, HL-60(TB) leukemia; settings: read-out: cytotoxicity GI50, HL-60(TB), 50% growth inhibition, average of two determinations, 8640 min
[9] = system: MLM melanoma; experiment: MTT cytotoxicity assay, MLM; settings: […]
[10] = system: A-549 lung carcinoma; experiment: MTT cytotoxicity assay, A-549; settings: Homo sapiens, A549, […]
[11] = system: tubulin; experiment: Inhibition of [3H]colchicine binding to tubulin (DEAE-filter); set-up: species or system bovine; settings: 1 μM tubulin, 5 μM [3H]colchicine, 5 μM inhibitor, 10 min, 37° C.
[12] = system: MCF-7 breast carcinoma; experiment: MTT cytotoxicity assay, MCF-7; settings: Homo sapiens, MCF7, […]
[13] = system: SKMEL-5 melanoma; experiment: MTT cytotoxicity assay, SKMEL-5; settings: Homo sapiens, SK-MEL-5, […], read-out: Cytotoxicity ED50, SKMEL-5
[14] = system: five cancer cell cultures; experiment: MTT cytotoxicity assay, five cancer cell cultures taken together; settings: for cytotoxicity (in words): five cancer cell lines
[15] = system: HT-29 colon adenocarcinoma; experiment: MTT cytotoxicity assay, HT-29; settings: Homo sapiens, HT-29, […]
[16] = first series (Table VIII and text), 37° C., 20 min, read-out: Tubulin polymerization IC50 (±S.D.)
[17] = read-out: Cytotoxicity ED50, MLM
[18] = read-out: Cytotoxicity ED50, A-549
[19] = read-out: Cytotoxicity ED50, MCF-7
[20] = read-out: Cytotoxicity ED50, HT-29
[21] = read-out: cytotoxicity ED50, five cancer cell lines
[22] = read-out: cytotoxicity ED50, in at least three cell lines

IC50 [2, 16] | Colchicine binding % inhibition [11] [%] | Compound | inhibition of tubulin polymerization (in words) [2] | increase in IC50 / loss of activity in tubulin polymerization [2] | IC50 [13] [nM] | cytotoxicity (in words) [14] | IC50 [9, 17] [nM] | IC50 [10, 18] [nM] | IC50 [12, 19] [nM] | IC50 [15, 20] [nM] | IC50 [14, 21] [nM] | IC50 [14, 22] [nM] | other results
– | – | CCOc1ccc(NCc2cc(OC)c(OC)c(OC)c2)cc1 [109d, 4-Ethoxy-N-(3,4,5-trimethoxybenzyl)aniline] | – | – | – | – | – | – | – | – | – | – | GI50 [1]: 2040 nM; IC50 ([2]; Table X, different glutamate preparation (1M monosodium glutamate and GTP), read-out: inhibn of tubulin polymn IC50 (±SD)): 12000 nM; GI50 [3]: 274 nM; GI50 ([4]; read-out: cytotoxicity GI50, OVCAR-3, 50% growth inhibition, average of two determinations, 8640 min): 340 nM; GI50 ([5]; read-out: cytotoxicity GI50, M14, 50% growth inhibition, average of two determinations, 8640 min): 403 nM; GI50 [6]: 296 nM; GI50 [7]: 432 nM; GI50 [8]: 296 nM
– | – | CCc1ccc(NCc2cc(OC)c(OC)c(OC)c2)cc1 [110b, 4-Ethyl-N-(3,4,5-trimethoxybenzyl)aniline Hydrochloride] | – | – | – | – | – | – | – | – | – | – | IC50 ([2]; Table X, different glutamate preparation (1M monosodium glutamate and GTP), Hydrochloride, read-out: inhibn of tubulin polymn IC50 (±SD)): 7200 nM; IC50 ([2]; benzylanilines, Table X series, Hydrochloride, read-out: tubulin polymerization IC50): 7200 nM; GI50 ([3]; Hydrochloride): 339 nM; GI50 ([4]; read-out: cytotoxicity GI50, OVCAR-3, 50% growth inhibition, average of two determinations, 8640 min, Hydrochloride): 405 nM; GI50 ([5]; read-out: cytotoxicity GI50, M14, 50% growth inhibition, average of two determinations, 8640 min, Hydrochloride): 437 nM; GI50 ([6]; Hydrochloride): 818 nM; GI50 ([7]; Hydrochloride): 352 nM; GI50 ([8]; Hydrochloride): 245 nM
36000 nM | 14 | COc1cc(/C=C\c2ccccc2)cc(OC)c1OC [compound 5f, (Z)-1-Phenyl-2-(3,4,5-trimethoxyphenyl)ethene] | – | – | 120 | decreased the activity drastically | > 25000 | 170 | 250 | 84 | – | – | –
3400 nM and 3500 nM | 83 | COc1cc(/C=C\c2ccc(N(C)C)cc2)cc(OC)c1OC [compound 5n, (Z)-1-[4-(N,N-Dimethylamino)phenyl)-2-(3,4,5-trimethoxyphenyl)ethene] | strong inhibitors of tubulin polymerization; also recorded: small reductions | – | 0.15 | – | 9.4 | 4.1 | 5.8 | 8.1 | < 100 | < 1000 | –
7900 nM | 65 | COc1ccc(CCc2cc(OC)c(OC)c(OC)c2)cc1 [compound 8a, 1-(4-Methoxyphenyl)-2-(3,4,5-trimethoxyphenyl)ethane] | strong inhibitors of tubulin polymerization | ~4 -fold | 0.14 | more cytotoxic than dihydrocombretastatin A-4 (1c) in all five cancer cell lines | 0.18 | 0.18 | 0.16 | 0.25 | ~0.2 | < 1000 | –
29000 nM | 31 | COc1cc(CCc2ccc(N(C)C)cc2)cc(OC)c1OC [compound 8n, 1-[4-(Dimethylamino)phenyl]-2-(3,4,5-trimethoxyphenyl)ethane] | only modest inhibitory effects on tubulin polymerization | – | 59 | – | 120 | 83 | 64 | 77 | – | < 1000 | –

Compound | IC50 [2, 16] | Colchicine binding % inhibition [11] [%] | inhibition of tubulin polymerization (in words) [2] | increase in IC50 / loss of activity in tubulin polymerization [2] | IC50 [13] [nM] | cytotoxicity (in words) [14] | IC50 [9, 17] [nM] | IC50 [10, 18] [nM] | IC50 [12, 19] [nM] | IC50 [15, 20] [nM] | IC50 [14, 21] [nM] | IC50 [14, 22] [nM] | other results
COc1cccc(/C=C\c2cc(OC)c(OC)c(OC)c2)c1 [compound 5b, (Z)-1-(3-Methoxyphenyl)-2-(3,4,5-trimethoxy-phenyl)ethene] | 8800 nM | 50 | strong inhibitors of tubulin polymerization; also recorded: active as inhibitors of tubulin polymerization | 4 -fold | 60 | decreased the activity drastically | – | – | – | – | – | – | IC50 ([9]; read-out: Cytotoxicity ED50, MLM, MLM, MTT, six days): 1400 nM; IC50 ([10]; read-out: Cytotoxicity ED50, A-549, A-549, MTT, six days): 130 nM; IC50 ([12]; read-out: Cytotoxicity ED50, MCF-7, MCF-7, MTT, six days): 140 nM; IC50 ([14]; read-out: cytotoxicity ED50): < 1000 nM; IC50 ([15]; read-out: Cytotoxicity ED50, HT-29, HT-29, MTT, six days): 90 nM
COc1cc(/C=C\c2ccc(OC(C)=O)cc2)cc(OC)c1OC [compound 5p, (Z)-1-(4-Acetoxyphenyl)-2-(3,4,5-trimethoxyphenyl)ethene] | 29000 nM | 24 | – | – | 600 | decreased the activity drastically | 6300 | 1700 | 300 | 6000 | – | – | –
COc1ccc(NCc2cc(OC)c(OC)c(OC)c2)cc1 [compound 12a, 3,4,5-Trimethoxy-N-(4-methoxyphenyl)benzylamine] | 23000 nM | 34 | only modest inhibitory effects on tubulin polymerization | 3 -fold | 0.7 | only an order of magnitude less cytotoxic than 8a | 1.6 | 1.9 | 2.4 | 1 | ~1 | < 1000 | –
